The values that follow come from US20260125372A1, “DYNAMIN-1-LIKE PROTEIN INHIBITORS AND USES THEREOF” (Astellas Engineered Small Molecules US, Incorporated, priority 2022, published 2026).

In general, IC50 refers to the concentration that gives 50% inhibition.

Where only a bound is given, the exact number is not on record here.

T1 sequence (O00429 1-699 isoform O00429-4): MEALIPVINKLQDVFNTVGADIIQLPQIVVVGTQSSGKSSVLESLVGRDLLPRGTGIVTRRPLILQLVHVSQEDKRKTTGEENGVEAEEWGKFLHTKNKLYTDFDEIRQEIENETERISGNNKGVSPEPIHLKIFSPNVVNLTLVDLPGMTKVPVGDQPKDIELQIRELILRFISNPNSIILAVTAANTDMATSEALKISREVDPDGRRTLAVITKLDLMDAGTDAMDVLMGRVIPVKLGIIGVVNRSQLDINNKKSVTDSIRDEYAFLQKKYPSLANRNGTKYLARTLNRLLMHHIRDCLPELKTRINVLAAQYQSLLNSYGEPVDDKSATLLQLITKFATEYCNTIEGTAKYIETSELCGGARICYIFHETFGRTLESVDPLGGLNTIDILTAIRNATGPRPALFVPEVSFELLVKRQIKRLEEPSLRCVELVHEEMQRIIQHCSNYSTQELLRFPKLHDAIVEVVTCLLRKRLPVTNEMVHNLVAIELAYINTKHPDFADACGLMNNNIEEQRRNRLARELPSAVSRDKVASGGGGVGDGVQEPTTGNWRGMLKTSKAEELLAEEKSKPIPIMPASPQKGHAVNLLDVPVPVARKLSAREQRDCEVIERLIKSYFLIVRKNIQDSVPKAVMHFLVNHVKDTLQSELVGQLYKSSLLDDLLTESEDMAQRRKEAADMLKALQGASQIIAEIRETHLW

The assay concerns the target T1, DRP1 (Homo sapiens, UniProt O00429).
T1 construct: Human DRIP1 (UniProtID: O00429.4, residues 1-699); made in house; host or cells: Escherichia coli BL21 CodonPlus DE3
In words: AlphaLISA assay (His-DRP1 / MiD49-GST interaction). In kind it is binding. The following applies: His-DRP1 200 nM, MiD49-GST 20 nM, GMP-PNP 100 uM. The procedure: Human DRIP1 (UniProtID: O00429.4, residues 1-699), and human MiD49 (UnitProtIS: Q96C03.1, residues 126-454) was cloned into a pET15b vector as an N-terminal His-tag Fusion. All constructs were transformed in Escherichia coli host strain BL21 CodonPlus DE3. Bacteria was grown in LB media with 100 μg/ml ampicillin and 34 μg/ml chloramphenicol in an orbital shaker at 37° C. until OD600 reached 0.4, at which temperature was reduced to 16° C. Recombinant protein expression was expressed for 18 hr by the addition of IPTG at OD600 of about 0.8. All cultures were spun down and bacterial pellets were used for protein purification.
For His-DRP1, the pellets were resuspended in DRP-buffer A (20 mM Tris, 500 KCl, 1.89 β-ME, pH 8.0) and protease inhibitor cocktail (Roche), followed by cell disruption by sonication (400 W, pulse 3 sec on, 3 sec off, total 20 min). The lysate was centrifuged at 20,000 g and then supernatant applied to a preequilibrated Ni-NTA column with DRP-buffer A. The column was extensively washed with buffer A containing 50 mM imidazole. Purified His-DRP1 was eluted with DRP-buffer A containing 250 mM imidazole and dialyzed overnight at 4° C. (18 kDa cutoff) against DRP-buffer A to remove imidazole. For AlphaLISA, the His tag was retained on DRP1 full-length.
For MiD49-GST, the bacterial pellets were resuspended and sonicated in MID lysis buffer (25 mM Tris-HCl, pH 7.5, 500 mM NaCl, 5% glycerol, 1 mM TCEP, and 0.5% CHAPS). The lysate was pre-cleared at 20,300 g before applying to a glutathione column. Unbound proteins were washed using MID-buffer A (25 mM Tris-HCl, pH 7.5, 300 mM NaCl, 5% glycerol, 1 mM TCEP) and MID-buffer B (25 mM Tris-HCl, pH 7.5, 300 mM NaCl, 5% glycerol, 1 mM TCEP, 1 mM GSH). The protein was eluted with MID-buffer C (25 mM Tris-HCl, pH 7.5, 300 mM NaCl, 5% glycerol, 1 mM TCEP, 10 mM GSH). The target protein was concentrated in the ultra-filtration tube with MW cutoff 30 kDa and further purified by size-exclusion chromatography on a Superdex-200 column (GE Healthcare) in buffer A. Fractions containing MiD49-GST (126-454) were pooled, concentrated, flash-frozen as single-use aliquots in liquid nitrogen and stored at −80° C.
A total of 100 nl of compounds were plated in a 384-well AlphaPlate (PerkinElmer, Waltham, MA) at concentrations 100 uM to […] in DMSO (dilution by 3.165 for 11 concentration levels). Recombinant His-DRP1 (200 nM), MiD49-GST (20 nM), and GMP-PNP (100 uM) were mixed in assay buffer (PBS with 1.5% BSA, 1 mM DTT). Five microliters of the protein mixture were added to the plate and incubate at room temperature for 30 min. Glutathione donor beads and nickel chelate acceptor beads were diluted and mixed in assay buffer to obtain 40 μg/ml of each bead. Five microliters of the mixed beads were added to each well on the microplate leading to a final bead concentration of 20 µg/ml per well. The sealed plate was incubated at room temperature for 60 min and protected from light. The AlphaLISA signal was detected with an EnVision Multilabel Reader (excitation at 680 and emission 615 nm). GraphPad Prism was used to calculate the IC50 by applying sigmoidal dose-response fit (variable slope).
A general note: Bead proximity is the source of the signal in Alpha formats.
Consider `COCCOc1cc(-c2cncs2)nc2ccc(NC(=O)[C@H](C)OC)cc12` [Example 36, (S)-2-methoxy-N-(4-(2-methoxyethoxy)-2-(thiazol-5-yl)quinolin-6-yl)propanamide], for which the IC50 was < 0.5 µM.

Turning to `COCCOc1cc(-c2cncs2)nc2ccc(NC(=O)[C@H]3C[C@@H](OC)C3)cc12` [Example 33, cis-3-methoxy-N-(4-(2-methoxyethoxy)-2-(thiazol-5-yl)quinolin-6-yl)cyclobutane-1-carboxamide], the IC50 is < 0.5 µM.

`COCCOc1cc(-c2cncs2)nc2ccc(NC(=O)C(C)COC)cc12` (stereo not drawn) [Example 32, 3-methoxy-N-(4-(2-methoxyethoxy)-2-(thiazol-5-yl)quinolin-6-yl)-2-methylpropanamide] registered an IC50 of 0.5 to 1 µM.

Compound `CCOc1cc(-c2cncs2)nc2ccc(NC(=O)C34CC(C3)C4)cc12` [Example 4, N-(4-ethoxy-2-(thiazol-5-yl)quinolin-6-yl)bicyclo[1.1.1]pentane-1-carboxamide] showed an IC50 of 0.5 to 1 µM.

For the compound `CCOC(C)C(=O)Nc1ccc2nc(-c3cncs3)cc(OCCOC)c2c1` (stereo not drawn) [Example 26, 2-ethoxy-N-(4-(2-methoxyethoxy)-2-(thiazol-5-yl)quinolin-6-yl)propanamide], the 50% inhibitory concentration (IC50) was < 0.5 µM.

`COC[C@H](C)Oc1cc(-c2cncs2)nc2ccc(NC(=O)C(C)C#N)cc12` (stereo partly drawn) [Example 48, 2-cyano-N-(4-(((S)-1-methoxypropan-2-yl)oxy)-2-(thiazol-5-yl)quinolin-6-yl)propanamide] had an IC50 of 0.5 to 1 µM.

`COCCOc1cc(-c2cncs2)nc2ccc(NC(=O)c3cnoc3)cc12` [Example 35, N-(4-(2-methoxyethoxy)-2-(thiazol-5-yl)quinolin-6-yl)isoxazole-4-carboxamide] came in with an IC50 of 0.5 to 1 µM.

On to `COCCOc1cc(-c2cncs2)nc2ccc(NC(=O)[C@H]3C[C@@H](O)C3)cc12` [Example 16, cis-3-hydroxy-N-(4-(2-methoxyethoxy)-2-(thiazol-5-yl)quinolin-6-yl)cyclobutane-1-carboxamide], for which the IC50 is < 0.5 µM.

Regarding `COCCOc1cc(-c2cncs2)nc2ccc(NC(=O)C3CCCOC3)cc12` (stereo not drawn) [Example 23, N-(4-(2-methoxyethoxy)-2-(thiazol-5-yl)quinolin-6-yl)tetrahydro-2H-pyran-3-carboxamide], the IC50 is < 0.5 µM.

As to `CCOc1cc(-n2cnc(C(C)(C)C)c2)nc2ccc(NC(=O)C3COC3)cc12` [Example 47, N-(2-(4-(tert-butyl)-1H-imidazol-1-yl)-4-ethoxyquinolin-6-yl)oxetane-3-carboxamide], the IC50 is > 10 µM.

In the case of `COCCOc1cc(-c2cncs2)nc2ccc(NC(=O)C3COC3)cc12` [Example 1, N-(4-(2-methoxyethoxy)-2-(thiazol-5-yl)quinolin-6-yl)oxetane-3-carboxamide], the IC50 is < 0.5 µM.

In the case of `COCCOc1cc(-c2cncs2)nc2ccc(NC(=O)CO)cc12` [Example 13, 2-hydroxy-N-(4-(2-methoxyethoxy)-2-(thiazol-5-yl)quinolin-6-yl) acetamide], the IC50 is 1 to 10 µM.

In the case of `COCCOc1cc(-c2cnc(C)s2)nc2ccc(NC(=O)C3COC3)cc12` [Example 11, N-(4-(2-methoxyethoxy)-2-(2-methylthiazol-5-yl)quinolin-6-yl)oxetane-3-carboxamide], the half-maximal inhibitory concentration (IC50) lay within 0.5 to 1 µM.

`CCOc1cc(-n2cnc(Cl)c2)nc2ccc(NC(=O)C3COC3)cc12` [Example 44, N-(2-(4-chloro-1H-imidazol-1-yl)-4-ethoxyquinolin-6-yl)oxetane-3-carboxamide] had an IC50 of 0.5 to 1 µM.

`CCOc1cc(-c2cnc(Cl)s2)nc2ccc(NC(=O)C3COC3)cc12` [Example 12, N-(2-(2-chlorothiazol-5-yl)-4-ethoxyquinolin-6-yl)oxetane-3-carboxamide] displayed an IC50 of 1 to 10 µM.

For `CCOc1cc(-c2cncs2)nc2ccc(NC(=O)C3COC3)cc12` [Example 3, N-(4-ethoxy-2-(thiazol-5-yl)quinolin-6-yl)oxetane-3-carboxamide], the IC50 was < 0.5 µM.

Regarding `COCCOc1cc(-c2cnn(C)c2)nc2ccc(NC(=O)C3COC3)cc12` [Example 53, N-(4-(2-methoxyethoxy)-2-(1-methyl-1H-pyrazol-4-yl)quinolin-6-yl)oxetane-3-carboxamide], the IC50 lay within 0.5 to 1 µM.

As to `CCOc1cc(-n2cnnc2)nc2ccc(NC(=O)C3COC3)cc12` [Example 45, N-(4-ethoxy-2-(4H-1,2,4-triazol-4-yl)quinolin-6-yl)oxetane-3-carboxamide], the IC50 was in the range of 1 to 10 µM.

The compound `COCCOc1cc(-c2cncs2)nc2ccc(NC(=O)COC)cc12` [Example 21, 2-methoxy-N-(4-(2-methoxyethoxy)-2-(thiazol-5-yl)quinolin-6-yl)acetamide] displayed an IC50 of 1 to 10 µM.

`COC[C@@H](C)Oc1cc(-c2cncs2)nc2ccc(NC(=O)C(C)C#N)cc12` (stereo partly drawn) [Example 49, 2-cyano-N-(4-(((R)-1-methoxypropan-2-yl)oxy)-2-(thiazol-5-yl)quinolin-6-yl)propanamide]: the IC50 fell in the range of 1 to 10 µM.

In turn, `COCCOc1cc(-c2cncs2)nc2ccc(NC(=O)[C@H](C)O)cc12` [Example 14, (S)-2-hydroxy-N-(4-(2-methoxyethoxy)-2-(thiazol-5-yl)quinolin-6-yl)propanamide] registered an IC50 of 1 to 10 µM.

As for `CCOc1cc(-c2cnc(C3CC3)s2)nc2ccc(NC(=O)C3COC3)cc12` [Example 8, N-(2-(2-cyclopropylthiazol-5-yl)-4-ethoxyquinolin-6-yl) oxetane-3-carboxamide], the IC50 fell in the range of 0.5 to 1 µM.

`COCCOc1cc(-c2cncs2)nc2ccc(NC(=O)[C@@H]3C[C@H]3C#N)cc12` (racemic) [Example 19, trans-2-cyano-N-(4-(2-methoxyethoxy)-2-(thiazol-5-yl)quinolin-6-yl)cyclopropane-1-carboxamide] registered an IC50 of 0.5 to 1 µM.

On to `CCOc1cc(-n2cnc(C)c2)nc2ccc(NC(=O)C3COC3)cc12` [Example 2, N-(4-ethoxy-2-(4-methyl-1H-imidazol-1-yl)quinolin-6-yl)oxetane-3-carboxamide], for which the IC50 was < 0.5 µM.

As to `COCCOc1cc(-n2cnc(C)c2)nc2ccc(NC(=O)C3COC3)cc12` [Example 41, N-(4-(2-methoxyethoxy)-2-(4-methyl-1H-imidazol-1-yl)quinolin-6-yl)oxetane-3-carboxamide], the IC50 is < 0.5 µM.

As to `COCCOc1cc(-n2cnc(C3CC3)c2)nc2ccc(NC(=O)C3COC3)cc12` [Example 40, N-(2-(4-cyclopropyl-1H-imidazol-1-yl)-4-(2-methoxyethoxy)quinolin-6-yl)oxetane-3-carboxamide], the IC50 was < 0.5 µM.

`COCCOc1cc(-c2cncs2)nc2ccc(NC(=O)C34CC(C3)C4)cc12` [Example 31, N-(4-(2-methoxyethoxy)-2-(thiazol-5-yl)quinolin-6-yl)bicyclo[1.1.1]pentane-1-carboxamide] yielded an IC50 of 1 to 10 µM.

For the compound `CCOc1cc(-n2cnc(C#N)c2)nc2ccc(NC(=O)C3COC3)cc12` [Example 46, N-(2-(4-cyano-1H-imidazol-1-yl)-4-ethoxyquinolin-6-yl)oxetane-3-carboxamide], the IC50 was in the range of 1 to 10 µM.

As for `O=C(Nc1ccc2nc(-c3cncs3)cc(OCCO)c2c1)C1COC1` [Example 9, N-(4-(2-hydroxyethoxy)-2-(thiazol-5-yl)quinolin-6-yl) oxetane-3-carboxamide], the IC50 was < 0.5 µM.

Turning to `COCCOc1cc(-c2cncs2)nc2ccc(NC(=O)[C@H]3C[C@H](OC)C3)cc12` [Example 34, trans-3-methoxy-N-(4-(2-methoxyethoxy)-2-(thiazol-5-yl)quinolin-6-yl)cyclobutane-1-carboxamide], the IC50 was > 10 µM.
